In PubChem BioAssay (NCI):
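Interpolation was linear, between the two tested concentrations surrounding the appropriate level; five concentrations were tested over 48 hours in 96-well plates. GI50 marks 50% less growth. TGI: total growth inhibition.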

Legend:
Assay in all cases: growth of human tumour cells (NCI), 48 h
[1] = test system: ACHN renal
[2] = test system: SF-539 CNS
[3] = test system: CCRF-CEM leukemia
[4] = test system: RPMI-8226 leukemia
[5] = test system: NCI-H522 lung
[6] = test system: DU-145 prostate
[7] = test system: TK-10 renal
[8] = test system: RXF 393 renal
[9] = test system: UACC-257 melanoma
[10] = test system: BT-549 breast

With `C/C(CC(O)(C(F)(F)F)C(F)(F)F)=N\NC(N)=O` the TGI [1] was greater than 10 µM, the TGI [2] was greater than 10 µM and the TGI [3] was greater than 10 µM. For the same compound, the TGI [4] was greater than 10 µM, the TGI [5] was greater than 10 µM and the TGI [6] was greater than 10 µM. For the same compound, the TGI [7] was greater than 10 µM, the TGI [8] was greater than 10 µM and the TGI [9] was greater than 10 µM.
`O=c1[nH]c(Nc2ccccc2)nc2c1ncn2CC(O)CSCCO` (configuration not stated) showed a TGI [1] greater than 100 µM, a TGI [2] greater than 100 µM and a TGI [3] greater than 100 µM. It also gave a TGI [10] greater than 100 µM, a TGI [4] greater than 100 µM and a TGI [5] greater than 100 µM. The TGI [6] was greater than 100 µM, the TGI [7] was greater than 100 µM and the TGI [9] was greater than 100 µM.
`c1ccc(-c2csc3c4ccccc4c4ccccc4[n+]23)cc1` was tested, and the TGI [1] was 30.6 µM, the TGI [2] was 14.8 µM and the TGI [3] was greater than 38.5 µM. For the same compound, the TGI [4] was greater than 100 µM, the TGI [5] was 7.12 µM and the TGI [7] was 43.6 µM. For the same compound, the TGI [8] was 26.7 µM and the TGI [9] was 3.27 µM.
With `COC(=O)C1(NC(=O)C(CC(=O)OCc2ccccc2)NC(=O)OCc2ccccc2)CCCCCC1` (configuration not stated) the TGI [1] was greater than 100 µM, the TGI [2] was 49.2 µM and the TGI [10] was 61.5 µM. It also gave a TGI [4] of 21.9 µM, a TGI [5] greater than 100 µM and a TGI [6] greater than 100 µM. It also gave a TGI [7] greater than 100 µM and a TGI [8] greater than 100 µM.
`CC12CCC(CC(=O)/C1=C(/Br)I)C2(C)C` (configuration not stated) showed a TGI [1] of 32.1 µM, a TGI [2] of 29.2 µM and a TGI [3] of 30.5 µM. The TGI [4] was 26.4 µM, the TGI [6] was 34.8 µM and the TGI [7] was 32.9 µM. The TGI [8] was 20.6 µM and the TGI [9] was 29.8 µM.
`C[C@@H]1OC(=O)C[C@H]2CC(=O)N(CCC3CN(C(=O)OCc4ccccc4)c4ccccc43)C[C@@H]21` (some centres not stated) gave a TGI [1] greater than 100 µM, a TGI [10] greater than 100 µM and a TGI [4] greater than 100 µM. The TGI [5] was greater than 100 µM, the TGI [6] was greater than 100 µM and the TGI [7] was greater than 100 µM. It also gave a TGI [8] greater than 100 µM and a TGI [9] greater than 100 µM.
`O=C(/C=C(/C=C/c1ccc2[nH]ccc2c1)OB(F)F)/C=C/c1ccc2[nH]ccc2c1` showed a GI50 [1] of 2.52 µM, a TGI [1] of 7.57 µM and a GI50 [2] of 2.68 µM. The TGI [2] was 9.29 µM, the GI50 [3] was 0.423 µM and the TGI [3] was greater than 100 µM. The GI50 [6] was 1.64 µM, the TGI [6] was 4.2 µM and the GI50 [7] was 4.78 µM. The TGI [7] was greater than 100 µM, the GI50 [8] was 1.56 µM and the TGI [8] was 3.63 µM. It also gave a GI50 [9] of 12.2 µM and a TGI [9] greater than 100 µM.
Work on `COc1ccc(N2CC(=O)N(C(=O)COc3ccc(OCC(=O)N4C(=O)CN(c5ccc(OC)cc5)C4=S)cc3)C2=S)cc1` yielded a TGI [1] greater than 100 µM, a TGI [10] greater than 100 µM and a TGI [4] greater than 100 µM. It also gave a TGI [5] greater than 100 µM, a TGI [6] greater than 100 µM and a TGI [7] greater than 100 µM. It also gave a TGI [8] greater than 100 µM and a TGI [9] greater than 100 µM.
With `Fc1ccc(C(OCCN2CCN(CCCc3ccccc3)CC2)c2ccc(F)cc2)cc1` the TGI [1] was 17.4 µM, the TGI [3] was greater than 100 µM and the TGI [10] was 19.3 µM. It also gave a TGI [4] of 8.63 µM, a TGI [5] of 12.4 µM and a TGI [6] of 19.5 µM. The TGI [7] was 18.7 µM, the TGI [8] was 11.3 µM and the TGI [9] was 8.62 µM.
In the case of `CC(=O)O[C@H]1CC(C)(C)C(=C=C/C(C)=C/C=C/C=C/C=C(C)/C=C2C=C(/C=C/[C@@]34O[C@]3(C)C[C@@H](O)CC4(C)C)C(=O)O/2)[C@](C)(O)C1`, the TGI [1] is reported as 48.7 µM, the TGI [2] is reported as 38 µM and the TGI [3] is reported as 10 µM. It also gave a TGI [10] of 8.16 µM, a TGI [4] of 27.9 µM and a TGI [6] greater than 100 µM. For the same compound, the TGI [7] was 21.3 µM, the TGI [8] was 20.5 µM and the TGI [9] was 51.5 µM.
In the case of `CCOC(=O)C(C#N)(Cc1c[nH]c2ccccc12)NC(C)=O` (configuration not stated), the TGI [1] is reported as greater than 100 µM, the TGI [3] is reported as greater than 100 µM and the TGI [4] is reported as greater than 100 µM. It also gave a TGI [5] greater than 100 µM, a TGI [7] greater than 100 µM and a TGI [8] greater than 100 µM. For the same compound, the TGI [9] was greater than 100 µM.
In the case of `CCc1n[nH]c(=O)n1CCCCCCCCCCCCn1c(CC)n[nH]c1=O`, the TGI [1] is reported as greater than 100 µM, the TGI [2] is reported as greater than 100 µM and the TGI [3] is reported as 64.3 µM. For the same compound, the TGI [10] was 77.5 µM, the TGI [4] was greater than 100 µM and the TGI [5] was greater than 100 µM. It also gave a TGI [7] greater than 100 µM, a TGI [8] greater than 100 µM and a TGI [9] of 40.2 µM.
`CCOC(=O)c1ccc(-n2[nH]nc(C(N)=O)c2=O)cc1` showed a TGI [1] greater than 100 µM, a TGI [3] greater than 100 µM and a TGI [10] greater than 100 µM. It also gave a TGI [4] greater than 100 µM, a TGI [5] greater than 100 µM and a TGI [6] greater than 100 µM. The TGI [7] was greater than 100 µM, the TGI [8] was greater than 100 µM and the TGI [9] was greater than 100 µM.
`C[C@@]1(O)C2CC3CC1(c1ccccc1)CC(/C3=N/O)/C2=N\O` (some centres not stated) showed a TGI [1] greater than 100 µM, a TGI [2] greater than 100 µM and a TGI [3] greater than 100 µM. For the same compound, the TGI [5] was greater than 100 µM, the TGI [6] was greater than 100 µM and the TGI [8] was greater than 100 µM. The TGI [9] was greater than 100 µM.
For `N#CN1C2CCC1CC(=O)C2`, the TGI [1] was greater than 100 µM, the TGI [2] was greater than 100 µM and the TGI [3] was greater than 100 µM. The TGI [10] was greater than 100 µM, the TGI [4] was greater than 100 µM and the TGI [5] was greater than 100 µM. The TGI [6] was greater than 100 µM, the TGI [7] was greater than 100 µM and the TGI [9] was greater than 100 µM.
`Cc1ccc(C(=N)c2ccccc2Cc2cccc3ccccc23)c2ccccc12` showed a TGI [1] greater than 100 µM, a TGI [2] greater than 100 µM and a TGI [3] greater than 100 µM. It also gave a TGI [10] greater than 100 µM, a TGI [5] greater than 100 µM and a TGI [6] greater than 100 µM. It also gave a TGI [7] greater than 100 µM, a TGI [8] greater than 100 µM and a TGI [9] greater than 100 µM.
`Cc1ccc2c(c1)-c1nc(N)c(C#N)c(-c3ccc(Cl)cc3)c1CCS2(=O)=O` was tested, and the TGI [1] was greater than 100 µM, the TGI [3] was 72 µM and the TGI [10] was greater than 100 µM. The TGI [5] was greater than 100 µM, the TGI [6] was greater than 100 µM and the TGI [7] was greater than 100 µM. For the same compound, the TGI [9] was greater than 100 µM.
`C[C@H](c1ccccc1)N1C(=O)[C@@H](O)[C@H]1[C@H](CO)OCc1ccccc1` showed a TGI [1] greater than 100 µM, a TGI [3] greater than 100 µM and a TGI [4] greater than 100 µM. For the same compound, the TGI [6] was greater than 100 µM, the TGI [7] was greater than 100 µM and the TGI [9] was greater than 100 µM.
`CCCCN(CCCC)Cc1cc(Nc2ccnc3cc(Cl)ccc23)ccc1O` was tested, and the GI50 [3] was 17.5 µM, the TGI [3] was greater than 100 µM and the GI50 [4] was 6.6 µM. For the same compound, the TGI [4] was greater than 100 µM, the GI50 [5] was 3.75 µM and the TGI [5] was greater than 100 µM. The GI50 [6] was greater than 100 µM, the TGI [6] was greater than 100 µM and the GI50 [7] was 2.62 µM. For the same compound, the TGI [7] was 26.4 µM, the GI50 [8] was 20.9 µM and the TGI [8] was greater than 100 µM. The GI50 [9] was 40.1 µM and the TGI [9] was greater than 100 µM.
In the case of `CCNCCNC(=O)c1ccc(I)cc1`, the TGI [1] is reported as greater than 100 µM, the TGI [2] is reported as greater than 100 µM and the TGI [3] is reported as greater than 100 µM. It also gave a TGI [10] greater than 100 µM, a TGI [4] greater than 100 µM and a TGI [7] greater than 100 µM. For the same compound, the TGI [8] was greater than 100 µM.
Compound `Cc1cc([NH-])c([NH-])cc1C.[Cl][Pt+2][Cl]` has a GI50 [2] of 8.5 µM, a TGI [2] greater than 31.6 µM and a GI50 [3] of 1.95 µM. It also gave a TGI [3] of 61.5 µM, a GI50 [4] of 9.49 µM and a TGI [4] of 60.2 µM. The GI50 [5] was 7.39 µM, the TGI [5] was 24.5 µM and the GI50 [8] was 16.3 µM. The TGI [8] was 31.1 µM, the GI50 [9] was 22.4 µM and the TGI [9] was greater than 67.2 µM.
For `C=CCC1(C#N)C(=S)NC2=C(C(=O)CC(C)(C)C2)C1c1ccccc1` (configuration not stated), the TGI [2] was greater than 100 µM, the TGI [3] was greater than 100 µM and the TGI [10] was greater than 100 µM. For the same compound, the TGI [4] was greater than 100 µM, the TGI [6] was 40.5 µM and the TGI [8] was greater than 100 µM.
